Source: patent US9579299B2, “CNS pharmaceutical compositions and methods of use” (TARGIA PHARMACEUTICALS, priority 2008, dated 2017)
“And” between values parts separate entries of the source, which are not always exact repeats. Identical values can stand only once.

Columns and labels:
[1] = test system: one GAD patient, a person; test: Example 11: alprazolam with neuromodulators in one GAD patient; type: in vivo, human
Experimental: The study was performed on one GAD patient. Fourteen days prior to the first treatment session, the subject was screened with a standard medical/psychiatric history and physical exam. The subject was rated on the Hamilton Anxiety Scale the Stanford Sleepiness Scale (SSS).
During their second visit, immediately prior to administration of alprazolam and placebo, the subject was rated on the Hamilton Anxiety Scale, Quality of Life Questionaire and SSS (pre dose, time 0). Following these tests, the subject received a regular morning alprazolam dose and placebo to mimic pseudoephedrine. Fifteen minutes later, the subject received approximately 120 ml of water and placebo to mimic guaifenesin. The subject was rated on the SSS at 2 hours (anticipated peak plasma concentration) and 4 hours following administration alprazolam. The subject was given enough placebo medication to last for one week (until Visit 3) with the exact instructions to take their medications in the same manner as described above. During this 7-day period, the subject completed an SSS questionaire (Table 16, Placebo). Ratings on the SSS were recorded immediately before (pre) and 3 hours following (post) administration of alprazolam.
During Visit 3, the subject was rated on the Hamilton Anxiety Scale, Quality of Life Questionaire, and SSS 3 hours after initial dose. The subject was then given the active neuromodulators and told to start with them on the next day following ingestion of the regular alprazolam medication. The subject took pseudoephedrine with alprazolam and Mucinex 15 minutes later (neuromodulators were given no more than twice a day and not after 6 PM). Three hours after each dose, the subject recorded their SSS measurements (Table 16, Treatment). […] Throughout this week, the subject recorded SSS scores of 1 (high alertness, no sedatition).

[2] = CNS active agent; cited from earlier work
[3] = test system: 8 patients suffering from GAD; test: Example 10: single blind trial of alprazolam with neuromodulators in GAD; type: in vivo, human; conditions: alprazolam 1 mg with pseudoephedrine 60 mg, guaifenesinER 600 mg 15 minutes later; one week
Experimental: The study was a single blind trial in which a panel of 8 patients suffering from GAD were administered alprazolam (1 mg), pseudoephedrine (60 mg), and guaifenesinER (600 mg). Subjects underwent an initial screening and then two weeks of testing with the medications of the study (see FIG. 7 for an illustration of the study scheme). Fourteen days prior to the first treatment session, subjects were screened with a standard medical/psychiatric history and physical exam (Screening Visit, Visit 1). Standard laboratory tests were performed at Screening Visit 1 including those of chemistry, hematology and urinalysis, urine test for drugs of abuse, HIV and hepatitis B and C serology tests, 12-lead resting electrocardiogram, and serum pregnancy test for females.
Prior to administration of the placebo treatment, the subjects were rated on the Hamilton Anxiety Scale, Quality of Life Questionnaire, and the Stanford Sleepiness Scale (SSS) (Visit 2, data not shown). Subjects complained of oversedation (SSS score of 4 or greater) from their psychopharmacologic regimen, which included benzodiazepine or alprazolam therapy.
Subjects were given a placebo medication that mimics the two neuromodulators for 7 days and underwent another series of tests at the end of this 7-day period (Visit 3). […]

[4] = parent drug; cited from earlier work
four healthy volunteers = test: Example 7: Stanford Sleepiness Scale study with alprazolam; type: in vivo, human; conditions: for time until subjects were asleep: all four subjects; for 2 Hr SSS / 4 Hr SSS / 6 Hr SSS: individual subjects
Experimental: The research study was performed on four healthy volunteers, ages 25-41 years old and 60-75 kg. The study was carried out in two sessions with one week in between. During the study volunteers completed a test to measure sleepiness by Stanford Sleepiness Scale (SSS). This SSS test was done before doses of the compositions being evaluated and 2, 4 and 6 hours after such doses (see FIG. 5 for an illustration of the study scheme).
At the first session, volunteers received the treatment (Alprazolam 1.0 mg)+PLAC (placebo)+ and 15 minutes later another PLAC. […] Their SSS score at 2 hour time point was 6 (woozy, fighting sleep). […] The other 2 patients slept through the 2, 4 and 6 hour testing.
At the second study session, volunteers received the treatment (Alprazolam 1.0 mg+60 mg of pseudoephedrine) and 15 minutes later received 400 mg of guaifenesin. […] After 2 and half hours, three out of the four subjects woke up and stayed awake for the rest of the time. Their SSS scores for 4 hour time point test were 2, 3 and 5, for 6 hour time point test SSS scores were 1, 3, 2. The fourth subject woke up for the 6 hour time point test and their SSS score was 3.

[5] = First Visit Day on Placebo: Alprazolam 1.0 mg + placebo
[6] = First Visit Day on Placebo: Alprazolam 1.0 mg + placebo, listed as alprazolam
[7] = Second Visit Day on Active Neuromodulation: Alprazolam 1.0 mg + 60 mg pseudoephedrine, 400 mg guaifenesin 15 minutes later
[8] = Second Visit Day on Active Neuromodulation: Alprazolam 1.0 mg + 60 mg pseudoephedrine, 400 mg guaifenesin 15 minutes later, listed as alprazolam

Cc1nnc2n1-c1ccc(Cl)cc1C(c1ccccc1)=NC2 [Alprazolam]
alertness and sedation by SSS, in words ([1]; 7-day period on alprazolam + placebo): significantly reduced alertness and increased sedation | SSS Score ([1]; Placebo (alprazolam + placebo), post: 3 hours following alprazolam, Days 1-7): X - asleep | SSS Score ([1]; Placebo column, 3 h post dose (before Day 1)): X - asleep | SSS Score ([1]; Placebo column, Screen): 6 | SSS Score ([1]; Treatment (alprazolam + pseudoephedrine, Mucinex 15 minutes later), post: three hours after dose, Days 8-15): 1 | SSS Score ([1]; Treatment (alprazolam + pseudoephedrine, Mucinex 15 minutes later), pre, Days 10-15): 1 | efficacy by Hamilton Anxiety Scale ([1]; alprazolam + active neuromodulators): did not show any reduction in the efficacy | SSS data relative to placebo treatment, in words ([1]; week on alprazolam + active neuromodulators): dramatic improvement relative to the placebo treatment | Tmax [2]: 1 to 2 h | bioactivity [2]: 55% | sedation-related effects as measured by the SSS [3]: significantly reduced | Elimination Half-Life [4]: 6 to 12 h | time until subjects were asleep (four healthy volunteers; Alprazolam 1.0 mg + placebo): within an hour and a half | time until subjects were asleep (four healthy volunteers; Alprazolam 1.0 mg + pseudoephedrine, guaifenesin 15 minutes later): within an hour and a half | 2 Hr SSS (four healthy volunteers; [5]): 6 | 4 Hr SSS (four healthy volunteers; [5]): 6 | 2 Hr SSS (four healthy volunteers; [6]): X - asleep (3×) and 6 | 4 Hr SSS (four healthy volunteers; [6]): X - asleep (3×) and 6 | 6 Hr SSS (four healthy volunteers; [6]): X - asleep (3×) and 3 | 2 Hr SSS (four healthy volunteers; [7]): X - asleep | 4 Hr SSS (four healthy volunteers; [7]): 2 and 3 and 5 | 6 Hr SSS (four healthy volunteers; [7]): 1 and 3 and 2 | 4 Hr SSS (four healthy volunteers; [8]): 2 and X - asleep and 5 and 3 | 6 Hr SSS (four healthy volunteers; [8]): 1 and 3 (2×) and 2 | total sleep time (four healthy volunteers; second session, Alprazolam administrated with neuromodulators, all four patients): 1.5 to 2.5 h
